Results on 28 compounds are retold here after ChEMBL document CHEMBL3400086, “Thieno[2,3-b]pyridines as negative allosteric modulators of metabotropic GluR5 receptors: Lead optimization” (Bioorg Med Chem Lett, 2015).

Series [1] deals with Metabotropic glutamate receptor 5 (Rattus norvegicus) (UniProt P31424). The series can be described thus: Displacement of [3H]-M-MPEP from rat cerebrocortical mGluR5 receptor at 1 uM. A general note: Loss of bound radioactivity is the signal in a displacement assay; it reports binding, not function.
Chain of Metabotropic glutamate receptor 5 (Rattus norvegicus) (P31424 21-1203 limits assumed): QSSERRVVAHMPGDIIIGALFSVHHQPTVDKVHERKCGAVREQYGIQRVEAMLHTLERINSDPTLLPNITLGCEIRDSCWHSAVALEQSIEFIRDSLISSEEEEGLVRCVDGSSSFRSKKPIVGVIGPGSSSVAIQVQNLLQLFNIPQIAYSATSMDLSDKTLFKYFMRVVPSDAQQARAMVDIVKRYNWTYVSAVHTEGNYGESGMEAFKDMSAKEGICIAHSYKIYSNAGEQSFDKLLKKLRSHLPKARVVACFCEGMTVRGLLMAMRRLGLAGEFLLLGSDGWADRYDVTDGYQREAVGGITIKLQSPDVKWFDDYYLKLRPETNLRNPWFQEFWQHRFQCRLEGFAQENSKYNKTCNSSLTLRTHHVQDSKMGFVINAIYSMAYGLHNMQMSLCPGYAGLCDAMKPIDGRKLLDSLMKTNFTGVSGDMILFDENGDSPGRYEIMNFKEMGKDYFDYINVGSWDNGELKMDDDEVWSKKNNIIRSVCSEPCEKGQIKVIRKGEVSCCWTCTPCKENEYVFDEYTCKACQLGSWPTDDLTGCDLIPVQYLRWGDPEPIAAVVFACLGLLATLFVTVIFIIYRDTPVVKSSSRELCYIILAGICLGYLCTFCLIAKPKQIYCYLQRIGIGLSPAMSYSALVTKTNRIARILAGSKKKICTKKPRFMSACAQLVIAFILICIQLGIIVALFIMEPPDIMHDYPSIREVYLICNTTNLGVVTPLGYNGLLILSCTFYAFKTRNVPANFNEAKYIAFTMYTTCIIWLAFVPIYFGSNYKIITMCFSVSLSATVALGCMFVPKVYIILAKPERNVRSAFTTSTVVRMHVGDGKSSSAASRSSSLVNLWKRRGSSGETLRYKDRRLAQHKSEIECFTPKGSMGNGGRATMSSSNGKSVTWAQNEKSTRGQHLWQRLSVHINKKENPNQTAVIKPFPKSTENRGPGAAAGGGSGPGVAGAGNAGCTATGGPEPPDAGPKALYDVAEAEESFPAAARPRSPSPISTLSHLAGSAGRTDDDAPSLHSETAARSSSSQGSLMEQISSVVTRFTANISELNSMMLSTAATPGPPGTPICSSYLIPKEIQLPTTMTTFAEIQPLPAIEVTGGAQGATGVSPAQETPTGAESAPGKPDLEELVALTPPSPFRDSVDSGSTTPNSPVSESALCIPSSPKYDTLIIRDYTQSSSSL
The test system of series [2] is Liver microsome. The series can be described thus: Intrinsic clearance in human liver microsomes measured per gram of tissue at 2.5 uM. Type of series: ADME. In general terms: Liver microsomes are vesicles of endoplasmic reticulum, rich in cytochrome P450 enzymes.
Series [3] has as its system Liver microsome. Description: Intrinsic clearance in Wistar rat liver microsomes measured per gram of tissue at 2.5 uM. It is filed as ADME.
The subject of series [4] is Rattus norvegicus. The series can be described thus: Anxiolytic effect in ip dosed Wistar male rat assessed as increase in number of accepted shocks by vogel punished drinking test. Type of series: functional.
The test system of series [5] is Rattus norvegicus. The series can be described thus: Anxiolytic effect in po dosed Wistar male rat assessed as increase in number of accepted shocks by vogel punished drinking test. Conditions: read-out: MED. Type of series: functional.
The target of series [6] is T1, Metabotropic glutamate receptor 5 (Rattus norvegicus, UniProt P31424). Description: Negative allosteric modulation of mGlu5 receptor in primary E17 rat embryo neuron assessed as ca2+ level by fluo-4/AM assay.
T1 sequence (P31424 whole entry): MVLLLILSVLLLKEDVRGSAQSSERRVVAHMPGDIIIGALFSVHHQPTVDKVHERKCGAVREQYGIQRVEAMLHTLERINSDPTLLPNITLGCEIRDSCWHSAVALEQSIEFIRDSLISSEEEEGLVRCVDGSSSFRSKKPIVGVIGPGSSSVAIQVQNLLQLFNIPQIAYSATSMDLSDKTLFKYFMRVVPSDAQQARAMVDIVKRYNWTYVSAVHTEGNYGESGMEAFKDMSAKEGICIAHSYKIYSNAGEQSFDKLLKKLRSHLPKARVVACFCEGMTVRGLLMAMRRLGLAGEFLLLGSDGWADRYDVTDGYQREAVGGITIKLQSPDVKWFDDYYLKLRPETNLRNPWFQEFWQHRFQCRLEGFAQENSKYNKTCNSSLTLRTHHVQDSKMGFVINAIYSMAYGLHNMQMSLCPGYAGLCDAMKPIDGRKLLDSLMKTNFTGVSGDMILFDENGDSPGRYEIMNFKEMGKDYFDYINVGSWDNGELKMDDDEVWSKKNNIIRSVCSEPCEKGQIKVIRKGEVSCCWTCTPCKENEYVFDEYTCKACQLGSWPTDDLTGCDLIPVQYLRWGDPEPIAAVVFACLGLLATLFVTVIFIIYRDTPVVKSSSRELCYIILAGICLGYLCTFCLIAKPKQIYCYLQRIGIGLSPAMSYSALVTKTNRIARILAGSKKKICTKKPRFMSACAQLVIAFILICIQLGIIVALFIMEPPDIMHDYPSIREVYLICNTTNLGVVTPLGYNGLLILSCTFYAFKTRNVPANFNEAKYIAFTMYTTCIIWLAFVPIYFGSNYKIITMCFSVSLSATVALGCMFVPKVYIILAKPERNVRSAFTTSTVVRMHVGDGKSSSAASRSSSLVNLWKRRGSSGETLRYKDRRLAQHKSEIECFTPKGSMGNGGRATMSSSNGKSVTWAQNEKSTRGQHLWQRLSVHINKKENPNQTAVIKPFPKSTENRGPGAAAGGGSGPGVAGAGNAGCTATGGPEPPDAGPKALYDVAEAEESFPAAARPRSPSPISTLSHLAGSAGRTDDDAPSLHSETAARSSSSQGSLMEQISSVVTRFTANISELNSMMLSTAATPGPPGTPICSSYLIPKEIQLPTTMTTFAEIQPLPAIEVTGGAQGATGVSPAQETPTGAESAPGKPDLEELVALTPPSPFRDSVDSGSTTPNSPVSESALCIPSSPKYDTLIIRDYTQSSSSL
The target in series [7] is T1, Metabotropic glutamate receptor 5. Description: Displacement of [3H]-M-MPEP from rat cerebrocortical mGluR5 receptor.

On to `O=S(=O)(NCc1ccc(Cl)cc1)c1sc2ncccc2c1-c1ccc(Cl)cc1`, for which the inhibition in series [1] turned out to be 30%.
In series [1], `Cc1cc(C)c(S(=O)(=O)c2sc3ncccc3c2-c2ccc(Cl)cc2)c(C)c1` gave an inhibition of 0%.
Turning to `O=S(=O)(Nc1ccc(Cl)cc1)c1sc2ncccc2c1-c1ccc(Cl)cc1`, in series [1], the inhibition amounted to 20%.
`CS(=O)(=O)c1ccc(-c2c(S(=O)(=O)c3ccc(Cl)cc3)sc3ncccc23)cc1`: the CLH is 0.4 mL/min/g in the series on Liver microsome [2] and 2.4 mL/min/g in the series with Liver microsome [3]. In series [1], this compound returned an inhibition of 13%.
With `CCCCS(=O)(=O)c1sc2ncccc2c1-c1ccc(Cl)cc1`, the inhibition in series [1] turned out to be 30%.
Take `O=S(=O)(c1sc2ncccc2c1-c1ccc(Cl)cc1)C1CCCCC1`: in series [1], the inhibition amounted to 14%.
`CC(=O)Nc1ccc(S(=O)(=O)c2sc3ncccc3c2-c2ccc(Cl)cc2)cc1` displayed an inhibition in series [1] of 6%.
In series [1], `Cc1noc(C)c1S(=O)(=O)c1sc2ncccc2c1-c1ccc(Cl)cc1` returned an inhibition of 0%.
Take `O=S(=O)(c1ccc(Cl)cc1)c1sc2ncccc2c1-c1ccc(Cl)cc1`: the CLH in the series on Liver microsome [2] came out at 1.6 mL/min/g; with Liver microsome [3] it was 4.2 mL/min/g. In addition, the Activity entry in the series with Rattus norvegicus [4] is “Dose-dependent effect”. In the series with Rattus norvegicus [4] (read-out: MED), the minimal effective dose turned out to be 40 mg/kg.
`CC1CCN(S(=O)(=O)c2sc3ncccc3c2-c2ccc(Cl)cc2)CC1` showed an inhibition in series [1] of 39%.
Consider `N#Cc1cc(F)cc(S(=O)(=O)c2sc3ncc(N)cc3c2-c2cccc(F)c2)c1`, for which the CLH in the series on Liver microsome [2] is 0.9 mL/min/g; in the series on Liver microsome [3], 1.2 mL/min/g. Further, in the series on Rattus norvegicus [5], the minimal effective dose is 3 mg/kg. The IC50 in series [6] came to 5.5 nM.
For `COc1ccnc2sc(S(=O)(=O)c3ccc(Cl)cc3)c(-c3ccc(Cl)cc3)c12`, the values for the CLH with Liver microsome [2] and in the series on Liver microsome [3] were 1 mL/min/g and 6.5 mL/min/g, respectively. In addition, the inhibition in series [1] stood at 20%.
`O=S(=O)(c1cccs1)c1sc2ncccc2c1-c1ccc(Cl)cc1` gave an inhibition in series [1] of 34%.
As to `O=S(=O)(c1ccc(Cl)cc1)c1sc2ncccc2c1Oc1ccc(Cl)cc1`, the CLH in the series on Liver microsome [2] was determined as 3 mL/min/g; in the series on Liver microsome [3], 9.3 mL/min/g. This compound gave an inhibition in series [1] of 11%.
For `COc1ccc2c(-c3ccc(Cl)cc3)c(S(=O)(=O)c3cccc(C#N)c3)sc2n1`, the CLH with Liver microsome [2] was determined as 0.3 mL/min/g; with Liver microsome [3], 4.2 mL/min/g. Further, in series [1], the inhibition came out at 50%.
Take `O=S(=O)(c1ccc(Cl)cc1)c1sc2nccc(O)c2c1-c1ccc(Cl)cc1`: the CLH in the series with Liver microsome [2] turned out to be 0.01 mL/min/g; in the series on Liver microsome [3], 0.7 mL/min/g. Moreover, the inhibition in series [1] was found to be 34%.
`O=S(=O)(Cc1ccccc1)c1sc2ncccc2c1-c1ccc(Cl)cc1` registered an inhibition in series [1] of 25%.
Regarding `Nc1cnc2sc(S(=O)(=O)c3ccc(Cl)cc3)c(-c3ccc(Cl)cc3)c2c1`, the CLH in the series with Liver microsome [2] was determined as 1.6 mL/min/g; in the series with Liver microsome [3], 0.7 mL/min/g. Moreover, the affinity in series [7] corresponds to a Ki of 19.1 nM. Besides, in series [6], the IC50 is 77 nM.
For `Cc1ccc(-c2c(S(=O)(=O)c3ccc(Cl)cc3)sc3ncccc23)cc1`, the CLH with Liver microsome [2] amounted to 3.9 mL/min/g; in the series with Liver microsome [3], 15.7 mL/min/g. For the same compound, the Ki in series [7] stood at 21 nM. The IC50 in series [6] is 111 nM.
As for `O=S(=O)(c1ccc(Cl)cc1)c1sc2ncc(Cl)cc2c1-c1ccc(Cl)cc1`, the CLH in the series on Liver microsome [2] turned out to be 0.01 mL/min/g; with Liver microsome [3], 2.8 mL/min/g. Moreover, the affinity in series [7] corresponds to a Ki of 69 nM. Also, in series [6], the IC50 was 363 nM.
On to `N#Cc1cccc(S(=O)(=O)c2sc3nc(Cl)ccc3c2-c2ccc(Cl)cc2)c1`, for which the CLH in the series with Liver microsome [2] amounted to 1.4 mL/min/g; in the series on Liver microsome [3], 3.6 mL/min/g. This compound gave an inhibition in series [1] of 19%.
For `O=S(=O)(c1ccc(Cl)cc1)c1sc2ncccc2c1-c1ccccc1Cl`, the CLH in the series on Liver microsome [2] turned out to be 2.8 mL/min/g; in the series with Liver microsome [3] it was 3.7 mL/min/g. In series [7], this compound displayed a Ki of 64 nM. Further, the IC50 in series [6] was found to be 172 nM.
Regarding `O=S(=O)(c1ccc(Cl)cc1)c1sc2nc(Cl)ccc2c1-c1ccc(Cl)cc1`, the CLH with Liver microsome [2] was determined as 0.01 mL/min/g; with Liver microsome [3], 3.4 mL/min/g. The same compound gave an inhibition constant (Ki) in series [7] of 93 nM. In addition, the IC50 in series [6] worked out at 1030 nM.
In series [1], `Cc1nc(C)c(S(=O)(=O)c2sc3ncccc3c2-c2ccc(Cl)cc2)s1` gave an inhibition of 35%.
For `N#Cc1ccc(-c2c(S(=O)(=O)c3cccc(C#N)c3)sc3ncccc23)cc1`, the results for the CLH with Liver microsome [2] and in the series with Liver microsome [3] were 0.1 mL/min/g and 2.9 mL/min/g, respectively. Also, the inhibition in series [1] came out at 62%.
As to `O=S(=O)(c1ccccc1Cl)c1sc2ncccc2c1-c1ccc(Cl)cc1`, the inhibition in series [1] was determined as 32%.
On to `N#Cc1cc(F)cc(S(=O)(=O)c2sc3ncc(N)cc3c2-c2cnccc2F)c1`, for which the CLH in the series with Liver microsome [2] amounted to 0.6 mL/min/g; in the series on Liver microsome [3], 0.7 mL/min/g. This compound yielded a Ki in series [7] of 15.2 nM. Moreover, the IC50 in series [6] turned out to be 18 nM.
Regarding `CN(C)c1ccc2c(-c3ccc(Cl)cc3)c(S(=O)(=O)c3ccc(Cl)cc3)sc2n1`, the values for the CLH with Liver microsome [2] and in the series with Liver microsome [3] were 1.4 mL/min/g and 3.7 mL/min/g, respectively. The same compound gave an inhibition in series [1] of 2%.

By inhibition is commonly meant the change of the read-out against control, counted positive when it falls. A high value points to a strong effect. Broadly, the IC50 is the midpoint of a concentration-inhibition curve. As a reminder, the Ki is a dissociation constant, usually derived from enzyme kinetics or from competition with a known ligand.
